According to paper PMC9824012, “Exploring Antimicrobial Peptides Efficacy against Fire Blight (Erwinia amylovora)” (Plants, 2022):
Ends that are not written are not given here.

Tested on: Erwinia amylovora
Test: Spot test screening of AMPs on plates
Format: cell-based, Erwinia amylovora strain PGL Z1
Parameters: key to Spot test result at 1 mM / Spot test result at 500 µM / Spot test result at 250 µM / Spot test result at 100 µM / Spot test result at 50 µM / Spot test result at 25 µM / Spot test result at 12.5 µM: +: Clear plaque formation; -: no plaque formation
Settings: overnight at 25 °C; for Spot test result at 12.5 µM: 5 µL peptide at 12.5 µM spotted on plate with E. amylovora 10^8 CFU/mL; for Spot test result at 25 µM: 5 µL peptide at 25 µM spotted on plate with E. amylovora 10^8 CFU/mL; for Spot test result at 50 µM: 5 µL peptide at 50 µM spotted on plate with E. amylovora 10^8 CFU/mL; for Spot test result at 100 µM: 5 µL peptide at 100 µM spotted on plate with E. amylovora 10^8 CFU/mL; for Spot test result at 250 µM: 5 µL peptide at 250 µM spotted on plate with E. amylovora 10^8 CFU/mL; for Spot test result at 500 µM: 5 µL peptide at 500 µM spotted on plate with E. amylovora 10^8 CFU/mL; for Spot test result at 1 mM: 5 µL peptide at 1 mM spotted on plate with E. amylovora 10^8 CFU/mL
Procedure: The bacterial material consisted of E. amylovora strain PGL Z1, isolated in 2013 from pear in Apulia region (Italy), and Xanthomonas campestris pv. campestris strain CFBP 1710 (X. campestris), isolated in 1975 from Brassica oleracea var. botrytis in France, which was used as a control to investigate the bactericidal activity and action mode of AMPs against two different bacteria. The bacterial strains were cultured on yeast extract peptone glucose agar (YPGA) and broth (YPG) media, consisting of 0.5% yeast extract, 0.5% peptone, 1% glucose and 1.5% agar. E. amylovora and X. campestris cell suspensions were prepared in sterile distilled water and the suspensions were adjusted to an optical density at 600 nm (OD600) of 0.1, which corresponds approximately to 10^8 CFU/mL.
The nine AMPs were screened using the spot test to select those with the best antibacterial activity against E. amylovora. Briefly, 300 µL of E. amylovora suspension (10^8 CFU/mL) was poured into the plates and maintained at room temperature for 15 min. Subsequently, 5 μL from each peptide at different concentrations (1000, 500, 250, 100, 50, 25 and 12.5 μM) was spotted onto the surface of the plates, followed by overnight incubation at 25 °C. Sterile distilled water was spotted in the plates as a control.
Supplementary Table S1. Results of the spot tests for the nine antimicrobial peptides used against Erwinia
Ascaphin-8 GF-19 + + + + + - -
DASamP1 FF-13 + + + - - - -
DASamP2 IL-14 + + + + + - -
Lycotoxin I IL-25 + + + + - - -
Maculatin 1.3 GF-21 + + + - - - -
Piscidin 1 FG-22 + + + + + - -
BP178 KL-29 + + + + + + -
RIJK2 RV-12 + + + - - - -
+: Clear plaque formation; -: no plaque formation.

For “RIVWVRIRRWFV-NH2 [RV12, RIJK2, synthetic antimicrobial peptide, synthesized by ProteoGenix]”, the “Spot test result at 12.5 µM” value was “-”, the “Spot test result at 25 µM” value was “-” and the “Spot test result at 50 µM” value was “-”. The “Spot test result at 100 µM” value was “-”, the “Spot test result at 250 µM” value was “+” and the “Spot test result at 500 µM” value was “+”. The “Spot test result at 1 mM” value was “+”.
Lycotoxin I [IL25] was tested, and the “Spot test result at 12.5 µM” value was “-”, the “Spot test result at 25 µM” value was “-” and the “Spot test result at 50 µM” value was “-”. For the same substance, the “Spot test result at 100 µM” value was “+”, the “Spot test result at 250 µM” value was “+” and the “Spot test result at 500 µM” value was “+”. For the same substance, the “Spot test result at 1 mM” value was “+”.
With “GLLGLLGSVVSHVVPAIVGHF-NH2 [GF21, Maculatin 1.3, antimicrobial peptide of frog origin, synthesized by ProteoGenix]” the “Spot test result at 12.5 µM” value was “-”, the “Spot test result at 25 µM” value was “-” and the “Spot test result at 50 µM” value was “-”. For the same substance, the “Spot test result at 100 µM” value was “-”, the “Spot test result at 250 µM” value was “+” and the “Spot test result at 500 µM” value was “+”. For the same substance, the “Spot test result at 1 mM” value was “+”.
“VQFRIRVRIVIRK-NH2 [VK13, 1036, synthetic antimicrobial peptide, synthesized by ProteoGenix]” was tested, and the “Spot test result at 12.5 µM” value was “-”, the “Spot test result at 25 µM” value was “-” and the “Spot test result at 50 µM” value was “-”. The “Spot test result at 100 µM” value was “-”, the “Spot test result at 250 µM” value was “+” and the “Spot test result at 500 µM” value was “+”. For the same substance, the “Spot test result at 1 mM” value was “+”.
